The text below walks through data of ChEMBL document CHEMBL5096157, “Metalloaminopeptidases of the Protozoan Parasite Plasmodium falciparum as Targets for the Discovery of Novel Antimalarial Drugs” (J Med Chem, 2021).

Values joined by “and” are separate entries in the source; they are usually repeats but may differ in a detail not shown here. Equal values may be shown once.

The Ki is a dissociation constant, usually derived from enzyme kinetics or from competition with a known ligand. A word on the IC50: it is the concentration that gives 50% inhibition. Broadly, the clearance is a measure of how efficiently the substance is removed, as volume per time. The half-life is the time in which the quantity being followed falls by half.

The nature of data set [1]: Inhibition of Plasmodium falciparum M18 aspartyl aminopeptidase assessed as inhibition constant.
Data set [2] has as its system Plasmodium falciparum. As to the kind of experiment: Antimalarial activity against erythrocytic stage Plasmodium falciparum in human RBC assessed as inhibition of parasite growth incubated for 48 hrs by [3H]hypoxanthine incorporation assay. The settings on record: Erythrocyte. It counts as functional, organism-based, Red blood cell.
Data set [3] has as its system Plasmodium falciparum. As to the kind of experiment: Antimalarial activity against erythrocytic stage Plasmodium falciparum in human RBC assessed as inhibition of parasite growth at 10 uM incubated for 48 hrs by [3H]hypoxanthine incorporation assay relative to control. In kind it is functional, Red blood cell. On the set-up: scale not given: the % may be the effect or the level left.

Data set [4] can be described thus: Inhibition of recombinant Plasmodium falciparum A-M1 assessed as inhibition constant using para-nitroanilide as substrate at 10 nM by spectrophotometer based method.
Data set [5] can be described thus: Inhibition of recombinant Plasmodium falciparum A-M17 assessed as inhibition constant using leucine para-nitroanilide as substrate at 60 nM by spectrophotometer based method.
The subject of data set [6] is Plasmodium falciparum. The experiment in a line: Antimalarial activity against Plasmodium falciparum 3D7 CQ-sensitive assessed as inhibition of growth by liquid scintillation counting method. It counts as functional, organism-based.
Data set [7] deals with Plasmodium falciparum. The experiment in a line: Antimalarial activity against Plasmodium falciparum chloroquine-resistant FcB1 Columbia assessed as inhibition of growth by liquid scintillation counting method. In kind it is functional, organism-based.
Data set [8] deals with Plasmodium chabaudi. The experiment in a line: In vivo antiplasmodial activity against Plasmodium chabaudi chabaudi 864VD infected in BALB/c mouse assessed as reducing parasitaemia at 12 to 24 mg/kg, ip administered for 3 days after infection and measured after 25 days Giemsa staining based microscopic analysis relative to control. It counts as functional. Also noted: scale not given: the % may be the effect or the level left. The settings on record: dose 12-24 mg/kg, time 25 day.

A short description of data set [9]: Clearance in CD-1 mouse at 3 mg/kg, iv measured after 8 hrs hrs by UHPLC analysis. In kind it is ADME, organism-based. The settings on record: in vivo.
Data set [10] can be described thus: Half life in CD-1 mouse at 3 mg/kg, iv measured after 8 hrs hrs by UHPLC analysis. It counts as ADME, organism-based. The settings on record: in vivo.
Data set [11] can be described thus: Inhibition of recombinant Plasmodium falciparum A-M17 assessed as inhibition constant using H-Leu-NHMec as substrate.
Data set [12] deals with Plasmodium falciparum. The experiment in a line: Antimalarial activity against Plasmodium falciparum D10 incubated for 48 hrs by [3H]hypoxanthine incorporation assay. It counts as functional, organism-based.
Data set [13] can be described thus: Inhibition of recombinant Plasmodium falciparum A-M1 using Leu-pNA as substrate by microplate reader analysis.
The subject of data set [14] is Plasmodium falciparum. As to the kind of experiment: Antimalarial activity against Plasmodium falciparum 3D7 CQ-sensitive incubated for 48 hrs by [3H]hypoxanthine incorporation assay based MicroBeta plate reader.
In data set [15] the test system is Plasmodium falciparum. The experiment in a line: Antimalarial activity against multidrug resistant Plasmodium falciparum Dd2 incubated for 48 hrs by [3H]hypoxanthine incorporation assay based MicroBeta plate reader.
The test system of data set [16] is Plasmodium berghei. As to the kind of experiment: In vivo antiplasmodial activity against Plasmodium berghei K173 infected in C57BL6 mouse assessed as mean survival time at 20 mg/kg, ip administered twice daily for 4 days after 2 hrs infection Giemsa staining based microscopic analysis relative to control. In kind it is functional. The settings on record: time 4 day.

The test system of data set [17] is Plasmodium yoelii. The experiment in a line: In vivo antiplasmodial activity against Plasmodium yoelii 17X infected in C57BL6 mouse assessed as mean survival time at 20 mg/kg, ip administered twice daily for 4 days after 2 hrs infection Giemsa staining based microscopic analysis relative to control. The settings on record: time 4 day. It counts as functional.

Data set [18] relates to Plasmodium falciparum. As to the kind of experiment: Antimalarial activity against Plasmodium falciparum NF54 wild-type assessed as reduction in proliferation incubated for 24 hrs by [3H]hypoxanthine incorporation assay. It counts as functional, organism-based.
The subject of data set [19] is Plasmodium falciparum. The experiment in a line: Antimalarial activity against multidrug resistant Plasmodium falciparum W2 assessed as reduction in proliferation incubated for 24 hrs. It counts as functional, organism-based. The settings on record: W2, 24 h.
Data set [20] in a line: Binding affinity to Plasmodium falciparum recombinant MetAP2 by Dex-Fum-mediated mammalian three-hybrid assay.
Data set [21] deals with Plasmodium falciparum. As to the kind of experiment: Antimalarial activity against Plasmodium falciparum 3D7 incubated for 48 hrs by [3H]hypoxanthine incorporation assay. It counts as functional, organism-based.
In data set [22] the test system is Plasmodium falciparum. The experiment in a line: Antimalarial activity against Plasmodium falciparum K1 incubated for 48 hrs by [3H]hypoxanthine incorporation assay. In kind it is functional, organism-based.
The test system of data set [23] is Plasmodium chabaudi. As to the kind of experiment: In vivo antiplasmodial activity against Plasmodium chabaudi chabaudi infected in C57/BL6J mouse assessed as reducing parasitaemia at 25 mg/kg, po administered for 4 days relative to control. The settings on record: time 4 day. In kind it is functional. On the set-up: scale not given: the % may be the effect or the level left.

Data set [24] has as its system Plasmodium chabaudi. As to the kind of experiment: In vivo antiplasmodial activity against Plasmodium chabaudi chabaudi infected in C57/BL6J mouse assessed as reducing parasitaemia at 50 mg/kg, po administered for 4 days relative to control. It counts as functional. Also noted: scale not given: the % may be the effect or the level left. The settings on record: time 4 day.

In data set [25] the test system is Plasmodium chabaudi. The experiment in a line: In vivo antiplasmodial activity against Plasmodium chabaudi chabaudi infected in C57/BL6J mouse assessed as reducing parasitaemia at 50 to 100 mg/kg, po administered for 4 days relative to control. On the set-up: scale not given: the % may be the effect or the level left. In kind it is functional. The settings on record: dose 50-100 mg/kg, time 4 day.

Data set [26] can be described thus: Inhibition of Plasmodium falciparum alanyl aminopeptidase assessed as inhibition constant using H-Leu-NHMec as substrate by spectrofluorimeter based analysis.
The test system of data set [27] is Plasmodium chabaudi. The experiment in a line: In vivo antiplasmodial activity against Plasmodium chabaudi chabaudi infected in C57/BL6J mouse assessed as reducing parasitaemia at 100 mg/kg, po administered for 4 days relative to control. In kind it is functional. On the set-up: scale not given: the % may be the effect or the level left. The settings on record: time 4 day.

For `N[C@@H](CCC(=O)O)P(=O)(O)O`, in [1], the inhibitory constant (Ki) came out at 340 nM.

With `Oc1ccc(CCNc2c3ccccc3nc3ccccc23)cc1O`, the IC50 in data set [2] is 1300 nM. The Activity in data set [3] is 96%.

As to `NC1CCc2cccc(-c3ccccc3)c2CC1=O` (stereo unspecified), the inhibition constant (Ki) was 50 nM in data set [4] and above 100000 nM in data set [5]. The IC50 in data set [6] was 11200 nM; in data set [7], 6500 nM. The Activity in data set [8] is 40%. In [9], this molecule had a clearance of 43 mL/min/kg. The molecule further gave a half-life in [10] of 2.2 h.

`CC(C)C[C@H](NC(=O)[C@@H](O)[C@H](N)Cc1ccc([N+](=O)[O-])cc1)C(=O)O`: in data set [11], the Ki worked out at 2.7 nM. In data set [12], the 50% inhibitory concentration (IC50) was 8000 nM.

As for `CC(C)CN(CCCN1CCN(CCCNc2ccnc3cc(Cl)ccc23)CC1)C(=O)CC(=O)NO`, the 50% inhibitory concentration (IC50) in data set [13] was found to be 854 nM.

`Cc1nc(-c2ccccn2)nc(NCCc2ccccc2)c1Cl`: the IC50 in [14] amounted to 1590 nM; in data set [15] it was 900 nM. Further, the Activity is 60% in data set [16] and 80% in [17].

In the case of `CO[C@]12C(=O)CC[C@@]1(CO)[C@H]2[C@@]1(C)O[C@@H]1CC=C(C)C`, the IC50 is 160 nM in data set [18], 270 nM in data set [19] and 116000 nM in [20].

Regarding `CO[C@H](C(=O)NO)[C@@H](CC(C)C)C(=O)N[C@H](C(=O)O)c1ccccc1`, the Ki in data set [11] was 25000 nM and 25700 nM. The molecule also registered a half-maximal inhibitory concentration (IC50) in data set [21] of 2000 nM.

On to `CO[C@H](C(=O)NO)[C@@H](CC(C)C)C(=O)N[C@H](C(=O)OC1CCCC1)c1ccccc1`, for which the inhibition constant Ki in data set [11] is 75000 nM and 76000 nM. Further, the IC50 in data set [21] came out at 370 nM; in data set [22], 376 nM. Besides, the Activity was 43% in data set [23], 52% in data set [24] and 66% in data set [25].

In the case of `NC(CCc1ccccc1)P(=O)(O)CC(Cc1ccc(O)cc1)C(=O)O` (stereo unspecified), the inhibition constant Ki in [26] amounted to 232 nM.

Consider `NCCC(=O)N(CCCN1CCN(CCCNc2ccnc3cc(Cl)ccc23)CC1)CC1CC1`, for which the IC50 in data set [13] amounted to 21000 nM.

As to `CC(C)CN(CCCN1CCN(CCCNc2ccnc3cc(Cl)ccc23)CC1)C(=O)C(N)C(=O)NO` (stereo unspecified), the IC50 in [13] was 2500 nM.

For the molecule `CO[C@H]1[C@H](C2(C)O[C@@H]2CC=C(C)C)[C@]2(CC[C@H]1OC(=O)NC(=O)CCl)CO2` (single isomer, unassigned), the IC50 in data set [18] stood at 2 nM; in data set [19] it was 3 nM; in data set [20], 2000 nM.

`CN1CCc2cccc3c2[C@@H]1Cc1ccc(O)c(O)c1-3` [(S)APOMORPHINE]: the IC50 in data set [2] was found to be 4000 nM. Further, the Activity in data set [3] stood at 87%.

Regarding `COC(=O)[C@H](CC(C)C)NC(=O)[C@@H](O)[C@H](N)Cc1ccccc1` [BESTATIN METHYL ESTER], the inhibition constant (Ki) in [11] was 138 nM. In addition, in data set [12], the 50% inhibitory concentration (IC50) was 20500 nM.

`CC(C)C[C@H](NC(=O)[C@@H](O)[C@H](N)Cc1ccccc1)C(=O)O` [UBENIMEX]: the half-inhibitory concentration (IC50) in data set [12] came out at 14900 nM; in [21] it was 5000 nM. Besides, in data set [27], the Activity was 34%.
